Where two headings read alike, the source gives them in different places.
Key:
Type in all cases: in vivo
[1] = system: Pyricularia oryzae; settings: for Test C disease control rating: rice blast; for Test C disease control rating (100 = 100% disease control, 0 = no disease control): rice seedlings sprayed to run-off, inoculated the following day, rating relative to controls, unmarked compounds (standard test rate)
[2] = system: Botrytis cinerea; experiment: Test E: gray mold, preventive spray on cucumber seedlings; settings: for Test E disease control rating: gray mold on cucumber; for Test E disease control rating (100 = 100% disease control, 0 = no disease control): cucumber seedlings sprayed to run-off, inoculated the following day, rating relative to controls, unmarked compounds (standard test rate)
In short: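 Preventive spray on cucumber seedlings used a suspension (3% acetone, 250 ppm Trem 014), applied to run-off one day before inoculation with Botrytis cinerea spores. Plants were held 48 h at 20° C in saturated air, then 5 days at 20° C. Percent disease control was scored relative to untreated plants.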

[3] = system: Puccinia recondita; experiment: Test B: wheat leaf rust, preventive spray on wheat seedlings; settings: for Test B disease control rating: wheat leaf rust; for Test B disease control rating (100 = 100% disease control, 0 = no disease control): wheat seedlings sprayed to run-off, inoculated the following day, rating relative to controls, unmarked compounds (standard test rate)
In short: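 Preventive test: P. recondita spores were applied one day after a run-off spray of compound suspension on wheat seedlings. Plants had 24 h at 20 °C in saturated air plus 6 days in a 20 °C growth chamber. Scoring is % disease control (100 = full) relative to controls.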

[4] = system: Phytophthora infestans; settings: for Test D disease control rating: tomato late blight; for Test D disease control rating (100 = 100% disease control, 0 = no disease control): tomato seedlings sprayed to run-off, inoculated the following day, rating relative to controls, unmarked compounds (standard test rate)
[5] = system: Eiysiphe graminis f. sp. tritici; experiment: Test A: wheat powdery mildew, preventive spray on wheat seedlings; settings: for Test A disease control rating: wheat powdery mildew; for Test A disease control rating (100 = 100% disease control, 0 = no disease control): wheat seedlings sprayed to run-off, inoculated the following day, rating relative to controls, unmarked compounds (standard test rate)
In short: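 Preventive test: seedlings inoculated with powdery mildew spores one day after run-off spraying of a suspension. Ratings after 7 days in a 20° C growth chamber express percent disease control versus controls.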

[6] = 100 = 100% disease control, 0 = no control, unmarked entries (standard test concentration)
[7] = 100 = 100% disease control, 0 = no control relative to controls, unmarked entries (standard test concentration)

SMILES | Test C disease control rating [1, 6] | Test E disease control rating [2, 6] | Test B disease control rating [3, 6] | Test D disease control rating [4, 6] | Test A disease control rating [5, 7] | further results
CC(C)(C)C(C#N)C(=O)NCCCn1c(C#N)cc(Cl)c1Cl (racemic) [compound 55] | 85% | 0% | 0% | 0% | 0% | –
CCC1(C(=O)NCCCc2ccccc2)C(C)C1(Cl)Cl (stereo not shown) [compound 155] | 86% | 0% | 0% | 23% | 71% | –
CC(COc1ccccc1Cl)NC(=O)C(C#N)C(C)C(C)(C)C (mixture of isomers) [compound 58] | – | – | – | – | – | Test C disease control rating ([1]; tested at 40 ppm): 52%; Test E disease control rating ([2]; tested at 40 ppm): 0%; Test B disease control rating ([3]; tested at 40 ppm): 0%; Test D disease control rating ([4]; tested at 40 ppm): 0%; Test A disease control rating ([5]; tested at 40 ppm): 57%
CCC1(C(=O)NC(C)COc2c(F)cccc2F)C(C)C1(Cl)Cl (stereo not shown) [105b] | – | – | – | – | – | Test C disease control rating ([1]; tested at 40 ppm): 74%; Test E disease control rating ([2]; tested at 40 ppm): 0%; Test B disease control rating ([3]; tested at 40 ppm): 0%; Test D disease control rating ([4]; tested at 40 ppm): 0%; Test A disease control rating ([5]; tested at 40 ppm): 21%
CCC1(C(=O)NC(C)COc2ccccc2Cl)C(C)C1(Cl)Cl (mixture of isomers) [81b] | – | – | – | – | – | Test C disease control rating ([1]; tested at 40 ppm): 74%; Test E disease control rating ([2]; tested at 40 ppm): 0%; Test B disease control rating ([3]; tested at 40 ppm): 0%; Test D disease control rating ([4]; tested at 40 ppm): 0%; Test A disease control rating ([5]; tested at 40 ppm): 85%
CC(COc1c(F)cccc1F)NC(=O)C(C#N)C(C)(C)C (mixture of isomers) [29a] | 74% | 6% | 0% | 35% | 0% | –
CC(COc1cccc(F)c1)NC(=O)C(C#N)C(C)(C)C (mixture of isomers) [3a] | 94% | 55% | 0% | 0% | 85% | –
CC(COc1ccccc1Cl)NC(=O)C(C#N)C(C)(C)C (mixture of isomers) [5a] | 0% | 0% | 68% | 0% | 0% | –
C=CC(C)(C)C(C#N)C(=O)N[C@H](C)COc1cc(Cl)ccc1Cl (single isomer, unassigned) [215a] | – | – | – | – | – | Test C disease control rating (100 = 100% disease control, 0 = no disease control) [1]: 99%; Test E disease control rating (100 = 100% disease control, 0 = no disease control) [2]: 0%; Test B disease control rating (100 = 100% disease control, 0 = no disease control) [3]: 0%; Test D disease control rating (100 = 100% disease control, 0 = no disease control) [4]: 45%; Test A disease control rating (100 = 100% disease control, 0 = no disease control) [5]: 63%
CC(COc1cc(OC(F)F)ccc1C#N)NC(=O)C(C#N)C(C)C(C)(C)C (mixture of isomers) [compound 277] | – | – | – | – | – | Test C disease control rating (100 = 100% disease control, 0 = no disease control) [1]: 0%; Test E disease control rating (100 = 100% disease control, 0 = no disease control) [2]: 0%; Test B disease control rating (100 = 100% disease control, 0 = no disease control) [3]: 0%; Test D disease control rating (100 = 100% disease control, 0 = no disease control) [4]: 0%; Test A disease control rating (100 = 100% disease control, 0 = no disease control) [5]: 0%
CCC1(C(=O)NC(C)COc2c(Br)cc(F)cc2Br)C(C)C1(Cl)Cl (stereo not shown) [compound 250] | – | – | – | – | – | Test C disease control rating (100 = 100% disease control, 0 = no disease control) [1]: 52%; Test E disease control rating (100 = 100% disease control, 0 = no disease control) [2]: 85%; Test B disease control rating (100 = 100% disease control, 0 = no disease control) [3]: 0%; Test D disease control rating (100 = 100% disease control, 0 = no disease control) [4]: 0%; Test A disease control rating (100 = 100% disease control, 0 = no disease control) [5]: 0%
CCC1(C(=O)NC(C)COc2cccc(Cl)c2)C(C)C1(Cl)Cl (mixture of isomers) [82a] | – | – | – | – | – | Test C disease control rating ([1]; tested at 40 ppm): 53%; Test E disease control rating ([2]; tested at 40 ppm): 0%; Test B disease control rating ([3]; tested at 40 ppm): 0%; Test D disease control rating ([4]; tested at 40 ppm): 43%; Test A disease control rating ([5]; tested at 40 ppm): 0%
Cc1cccc(C#N)c1OCC(C)NC(=O)C(C#N)C(C)C(C)(C)C (mixture of isomers) [compound 280] | – | – | – | – | – | Test C disease control rating (100 = 100% disease control, 0 = no disease control) [1]: 74%; Test E disease control rating (100 = 100% disease control, 0 = no disease control) [2]: 0%; Test B disease control rating (100 = 100% disease control, 0 = no disease control) [3]: 0%; Test D disease control rating (100 = 100% disease control, 0 = no disease control) [4]: 0%; Test A disease control rating (100 = 100% disease control, 0 = no disease control) [5]: 56%
CC(COc1cccc(Cl)c1C#N)NC(=O)C(C#N)C(C)(C)C (mixture of isomers) [compound 42] | 53% | 0% | 0% | 2% | 0% | –
CC(COc1ccccc1C(C)C)NC(=O)C(C#N)C(C)(C)C (mixture of isomers) [compound 22] | 100% | 0% | 0% | 0% | 0% | –
CCC1(C(=O)NC(C)COc2cccc(I)c2C#N)C(C)C1(Cl)Cl (mixture of isomers) [compound 132] | 0% | 0% | 0% | 2% | 0% | –
Cc1c(Br)cc(C#N)n1CCC(C)NC(=O)C(C#N)C(C)C(C)(C)C (mixture of isomers) [compound 73] | 53% | 11% | 28% | 0% | 30% | –
C=CC(C)(CF)C(C#N)C(=O)NC(C)COc1cc(F)ccc1F (mixture of isomers) [compound 218] | – | – | – | – | – | Test C disease control rating (100 = 100% disease control, 0 = no disease control) [1]: 100%; Test E disease control rating (100 = 100% disease control, 0 = no disease control) [2]: 0%; Test B disease control rating (100 = 100% disease control, 0 = no disease control) [3]: 68%; Test D disease control rating (100 = 100% disease control, 0 = no disease control) [4]: 17%; Test A disease control rating (100 = 100% disease control, 0 = no disease control) [5]: 86%
CC(COc1ccc(Cl)cc1)NC(=O)C(C#N)C(C)(C)C (single isomer, unassigned) [7a] | 91% | 0% | 85% | 89% | 77% | –
CCC1(C(=O)NC(C)COc2cccc(Cl)c2)C(C)C1(Cl)Cl (mixture of isomers) [82b] | 97% | 0% | 0% | 15% | 31% | –
CCC1(C(=O)NCC=Cc2ccccc2Cl)C(C)C1(Cl)Cl (stereo not shown) [compound 158] | – | – | – | – | – | Test C disease control rating ([1]; tested at 40 ppm): 52%; Test E disease control rating ([2]; tested at 40 ppm): 0%; Test B disease control rating ([3]; tested at 40 ppm): 0%; Test D disease control rating ([4]; tested at 40 ppm): 0%; Test A disease control rating ([5]; tested at 40 ppm): 0%
CCC1(C(=O)NCCCn2c(Cl)cc(Cl)c2Cl)C(C)C1(Cl)Cl (stereo not shown) [compound 148] | 74% | 0% | 0% | 0% | 0% | –
CCC(C#N)C(=O)NC(C)C(Oc1cc(F)ccc1C#N)c1ccccc1 (mixture of isomers) [compound 286] | – | – | – | – | – | Test C disease control rating (100 = 100% disease control, 0 = no disease control) [1]: 99%; Test E disease control rating (100 = 100% disease control, 0 = no disease control) [2]: 0%; Test B disease control rating (100 = 100% disease control, 0 = no disease control) [3]: 0%; Test D disease control rating (100 = 100% disease control, 0 = no disease control) [4]: 0%; Test A disease control rating (100 = 100% disease control, 0 = no disease control) [5]: 76%

From patent US6642392B1 (priority 1997, dated 2003)
